Test results from patent publication US9346795B2, “Substituted sulfonamides useful as antiapoptotic Bcl inhibitors” (Bristol-Myers Squibb Company, priority 2011, dated 2016).

Legend:
Bcl-xL = Bcl-xL (Homo sapiens (Human), UniProt Q07817); test: Bcl-xL/Bim Fluorescence Resonance Energy Transfer Assay (FRET); assay type: binding
How it was run: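 IC50 values come from non-linear regression over an eleven-point compound titration. Each compound was first incubated with biotinylated Bcl-xL and Bim for 60 min at room temperature. FRET was then detected after a 30 min dark incubation with streptavidin-terbium.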

Bcl-2 = Bcl-2 (Homo sapiens (Human), UniProt P10415); test: Bcl-2/Bim Fluorescence Polarization Assay (FPA); assay type: binding
Chain of Bcl-2 (P10415 whole entry): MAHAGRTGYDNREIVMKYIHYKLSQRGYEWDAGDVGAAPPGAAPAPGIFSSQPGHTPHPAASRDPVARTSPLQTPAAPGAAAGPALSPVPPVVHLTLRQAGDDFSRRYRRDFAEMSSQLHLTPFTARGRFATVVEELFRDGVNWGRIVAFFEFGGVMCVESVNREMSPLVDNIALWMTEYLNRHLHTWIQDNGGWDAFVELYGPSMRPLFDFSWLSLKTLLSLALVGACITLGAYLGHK

Chain of Bcl-xL (Q07817 whole entry): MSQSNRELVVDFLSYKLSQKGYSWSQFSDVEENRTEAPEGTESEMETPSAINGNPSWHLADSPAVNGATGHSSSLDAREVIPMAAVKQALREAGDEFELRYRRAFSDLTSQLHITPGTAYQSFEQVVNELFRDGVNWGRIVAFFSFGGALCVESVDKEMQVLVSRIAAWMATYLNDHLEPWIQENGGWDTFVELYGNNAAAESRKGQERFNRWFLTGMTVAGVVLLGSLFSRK

IC50 (Bcl-xL)	IC50 (Bcl-2)	SMILES
60 nM	120 nM	CCCCN(CCCC)C(=O)c1nn(-c2ccc(C(=O)NS(=O)(=O)c3ccc4ccccc4c3)cc2C(=O)N2COc3ccccc3C2)c(C)c1Cl [Example 96, N,N-Dibutyl-4-chloro-1-(2-(3,4-dihydro-2H-benzo[e][1,3]oxazine-3-carbonyl)-4-(naphthalen-2-ylsulfonylcarbamoyl)phenyl)-5-methyl-1H-pyrazole-3-carboxamide]
40 nM	90 nM	CCCCN(CCCC)C(=O)c1nn(-c2ccc(C(=O)NS(=O)(=O)c3ccc4ccc(C(=O)N5CCN(C)CC5)cc4c3)cc2C(=O)N2CCc3ccccc3C2)c(C)c1Cl [Example 46, N,N-Dibutyl-4-chloro-5-methyl-1-(4-(7-(4-methylpiperazine-1-carbonyl)naphthalen-2-ylsulfonylcarbamoyl)-2-(1,2,3,4-tetrahydroisoquinoline-2-carbonyl)phenyl)-1H-pyrazole-3-carboxamide]
20 nM	30 nM	CCCCN(CCCC)C(=O)c1nn(-c2ccc(C(=O)NS(=O)(=O)c3ccc4ccccc4c3)cc2C(=O)N2CCc3ccccc3C2)c(C)c1Cl [Example 1, N,N-Dibutyl-4-chloro-5-methyl-1-(4-(naphthalen-2-ylsulfonylcarbamoyl)-2-(1,2,3,4-tetrahydroisoquinoline-2-carbonyl)phenyl)-1H-pyrazole-3-carboxamide]
60 nM	10 nM	CCCCN(CCCC)c1ccc(Br)c(-c2ccc(C(=O)NS(=O)(=O)c3ccc4cccc(Cl)c4c3)cc2C(=O)N2CCc3ccccc3C2)n1 [Example 289, 4-(3-Bromo-6-(dibutylamino)pyridin-2-yl)-N-(8-chloronaphthalen-2-ylsulfonyl)-3-(1,2,3,4-tetrahydroisoquinoline-2-carbonyl)benzamide]
10 nM	6.97 nM	CCCCN(CCCC)C(=O)c1cn(C)c(-c2ccc(C(=O)NS(=O)(=O)c3ccc4cccc(I)c4c3)cc2C(=O)N2Cc3ccccc3C[C@H]2CN)n1 [Example 282, 2-(2-((S)-3-(Aminomethyl)-1,2,3,4-tetrahydroisoquinoline-2-carbonyl)-4-(8-iodonaphthalen-2-ylsulfonylcarbamoyl)phenyl)-N,N-dibutyl-1-methyl-1H-imidazole-4-carboxamide]
80 nM	7.69 nM	CCCCN(CCCC)C(=O)c1nn(-c2ccc(C(=O)NS(=O)(=O)c3ccc4c(c3)c(I)cn4CC)cc2C(=O)N2CCc3ccccc3C2)c(C)c1Cl [Example 84, N,N-dibutyl-4-chloro-1-(4-(1-ethyl-3-iodo-1H-indol-5-ylsulfonylcarbamoyl)-2-(1,2,3,4-tetrahydroisoquinoline-2-carbonyl)phenyl)-5-methyl-1H-pyrazole-3-carboxamide]
230 nM	250 nM	CCCCN(CCCC)C(=O)c1nn(-c2ccc(C(=O)NS(=O)(=O)c3ccc4c(c3)CCN4C(=O)C3CCCCC3)cc2C(=O)N2CCc3ccccc3C2)c(C)c1Cl [Example 55, N,N-dibutyl-4-chloro-1-(4-(1-(cyclohexanecarbonyl)indolin-5-ylsulfonylcarbamoyl)-2-(1,2,3,4-tetrahydroisoquinoline-2-carbonyl)phenyl)-5-methyl-1H-pyrazole-3-carboxamide]
30 nM	3780 nM	CCCCN(CCCC)C(=O)c1nn(-c2ccc(C(=O)NS(=O)(=O)c3ccc4ccc(OCCCN5CCCC5)cc4c3)cc2C(=O)N2CCc3ccccc3C2)c(C)c1Cl [Example 40, N,N-dibutyl-4-chloro-5-methyl-1-(4-(7-(3-(pyrrolidin-1-yl)propoxy)naphthalen-2-ylsulfonylcarbamoyl)-2-(1,2,3,4-tetrahydroisoquinoline-2-carbonyl)phenyl)-1H-pyrazole-3-carboxamide]

Further lines, the molecule ahead of its results:

SMILES	IC50 (Bcl-xL)	IC50 (Bcl-2)
CCCCN(CCCC)C(=O)c1nn(-c2ccc(C(=O)NS(=O)(=O)c3cc(Br)c4c(ccn4CC)c3)cc2C(=O)N2Cc3ccccc3C[C@H]2CO)c(C)c1Cl [Example 208, 1-(4-(7-bromo-1-ethyl-1H-indol-5-ylsulfonylcarbamoyl)-2-((S)-3-(hydroxymethyl)-1,2,3,4-tetrahydroisoquinoline-2-carbonyl)phenyl)-N,N-dibutyl-4-chloro-5-methyl-1H-pyrazole-3-carboxamide]	7.88 nM	3.59 nM
CCCN(CCC)c1nn(-c2ccc(C(=O)NS(=O)(=O)c3ccc4ccccc4c3)cc2C(=O)N2Cc3ccccc3C[C@H]2CO)c(C)c1Cl [Example 192, 4-(4-Chloro-3-(dipropylamino)-5-methyl-1H-pyrazol-1-yl)-3-((S)-3-(hydroxymethyl)-1,2,3,4-tetrahydroisoquinoline-2-carbonyl)-N-(naphthalen-2-ylsulfonyl)benzamide]	30 nM	60 nM
CCCCN(C(=O)c1nn(-c2ccc(C(=O)NS(=O)(=O)c3ccc4c(Cl)ccc(Cl)c4c3)cc2C(=O)N2CCc3ccccc3C2)c(C)c1Cl)c1cccc(-c2ccc(Cl)cc2)c1 [Example 221, N-butyl-4-chloro-N-(4′-chlorobiphenyl-3-yl)-1-(4-(5,8-dichloronaphthalen-2-ylsulfonylcarbamoyl)-2-(1,2,3,4-tetrahydroisoquinoline-2-carbonyl)phenyl)-5-methyl-1H-pyrazole-3-carboxamide]	40 nM	40 nM
CCCCN(Cc1ccc(Cl)c(Cl)c1)C(=O)c1nn(-c2ccc(C(=O)NS(=O)(=O)c3ccc4cccc(Cl)c4c3)cc2C(=O)N2Cc3ccccc3C[C@H]2CO)c(C)c1Cl [Example 181, N-Butyl-4-chloro-1-(4-(8-chloronaphthalen-2-ylsulfonylcarbamoyl)-2-((S)-3-(hydroxymethyl)-1,2,3,4-tetrahydroisoquinoline-2-carbonyl)phenyl)-N-(3,4-dichlorobenzyl)-5-methyl-1H-pyrazole-3-carboxamide]	50 nM	8.49 nM
CCCCc1c(-c2ccc(C(=O)NS(=O)(=O)c3ccc4cccc(Cl)c4c3)cc2C(=O)N2CCc3ccccc3C2)c(CO)nn1-c1ccc(Oc2cccc(Cl)c2)cc1 [Example 252, 4-(5-butyl-1-(4-(3-chlorophenoxy)phenyl)-3-(hydroxymethyl)-1H-pyrazol-4-yl)-N-(8-chloronaphthalen-2-ylsulfonyl)-3-(1,2,3,4-tetrahydroisoquinoline-2-carbonyl)benzamide]	10 nM	6.37 nM
